In patent publication EP1900728A1 (Genecare Research Institute Co., Ltd, priority 2005, dated 2006) one finds IC50 data, which are given here for 57 molecules.

T1 sequence (Q9Y297 whole entry): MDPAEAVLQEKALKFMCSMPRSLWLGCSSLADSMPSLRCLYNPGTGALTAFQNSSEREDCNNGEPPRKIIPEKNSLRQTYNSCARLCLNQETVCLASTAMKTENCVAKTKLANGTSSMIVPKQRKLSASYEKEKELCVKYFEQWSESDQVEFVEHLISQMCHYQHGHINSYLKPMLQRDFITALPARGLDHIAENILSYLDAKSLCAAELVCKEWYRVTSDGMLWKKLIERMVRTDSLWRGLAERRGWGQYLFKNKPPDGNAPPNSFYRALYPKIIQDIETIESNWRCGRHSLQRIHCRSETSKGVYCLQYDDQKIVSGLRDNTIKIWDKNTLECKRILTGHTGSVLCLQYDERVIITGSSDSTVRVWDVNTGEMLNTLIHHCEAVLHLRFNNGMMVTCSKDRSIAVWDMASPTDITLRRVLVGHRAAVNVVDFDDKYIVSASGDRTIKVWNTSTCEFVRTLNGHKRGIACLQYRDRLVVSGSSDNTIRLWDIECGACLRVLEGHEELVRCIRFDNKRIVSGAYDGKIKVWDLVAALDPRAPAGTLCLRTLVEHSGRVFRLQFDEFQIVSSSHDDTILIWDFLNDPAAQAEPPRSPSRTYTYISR
T1 sequence (Q13616 whole entry): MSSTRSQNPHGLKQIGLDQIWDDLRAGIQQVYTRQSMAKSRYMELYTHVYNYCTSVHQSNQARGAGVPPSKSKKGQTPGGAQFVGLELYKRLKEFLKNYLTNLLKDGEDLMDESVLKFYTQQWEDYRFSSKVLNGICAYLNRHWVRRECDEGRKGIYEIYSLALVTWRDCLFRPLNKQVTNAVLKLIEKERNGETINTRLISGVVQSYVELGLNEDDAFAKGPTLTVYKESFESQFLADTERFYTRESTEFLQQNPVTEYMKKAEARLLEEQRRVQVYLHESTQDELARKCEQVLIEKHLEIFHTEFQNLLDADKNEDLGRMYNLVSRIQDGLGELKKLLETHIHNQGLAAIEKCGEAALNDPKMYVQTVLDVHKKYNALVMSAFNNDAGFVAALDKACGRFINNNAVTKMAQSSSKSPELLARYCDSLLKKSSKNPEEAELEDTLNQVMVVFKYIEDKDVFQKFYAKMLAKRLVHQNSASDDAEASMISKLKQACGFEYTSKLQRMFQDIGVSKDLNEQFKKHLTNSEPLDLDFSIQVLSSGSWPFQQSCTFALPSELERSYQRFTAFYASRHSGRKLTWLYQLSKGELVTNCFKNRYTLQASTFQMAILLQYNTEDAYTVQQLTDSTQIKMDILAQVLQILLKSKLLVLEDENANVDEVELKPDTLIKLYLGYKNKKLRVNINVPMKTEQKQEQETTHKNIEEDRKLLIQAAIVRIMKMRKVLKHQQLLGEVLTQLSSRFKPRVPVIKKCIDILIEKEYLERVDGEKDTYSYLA
T1 sequence (P63208 whole entry): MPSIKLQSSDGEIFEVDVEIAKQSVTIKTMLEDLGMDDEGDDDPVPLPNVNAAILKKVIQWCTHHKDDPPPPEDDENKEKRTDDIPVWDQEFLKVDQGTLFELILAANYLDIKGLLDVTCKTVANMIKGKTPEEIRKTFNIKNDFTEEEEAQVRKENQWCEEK
T1 sequence (P62877 whole entry): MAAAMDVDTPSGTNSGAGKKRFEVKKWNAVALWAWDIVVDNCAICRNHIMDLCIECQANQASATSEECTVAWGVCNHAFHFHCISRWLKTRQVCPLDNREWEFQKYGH

One assay addresses T1, IκBα ubiquitinating enzyme (SCF complex: ROC1, Cullin1, Skp1, His-TrCP1; with E1, UbcH5b) (Homo sapiens, UniProt P62877+P63208+Q13616+Q9Y297).
T1 construct: His (polyhistidine); made in house; host or cells: insect cells (baculovirus) for the SCF complex and His-E1; E. coli for His-UBCH5b
Briefly: Measurement of ubiquitinating enzyme activity (IκBα ubiquitination, time-resolved fluorescence with Eu(K)-labeled ubiquitin and XL665-labeled anti-GST antibody). The settings on record: enzyme activity inhibition test, method (1), Table 5; read-out: EVALUATION
The format is biochemical. As to the method:
Method 1: Measurement of ubiquitinating enzyme activity
A recombinant vector His-UBCH5b containing a polyhistidine tag (His) and UBCH5b was prepared. E. coli was transformed with the vector, the protein was expressed, and affinity purification was carried out using Ni-NTA agarose (Qiagen). Four types of recombinant baculoviruses (ROC1, Cullin1, Skp1, and His-TrCP1) were prepared for the SCF complex protein, insect cells were infected in quadruplicate for expression, and affinity purification was carried out using Ni-NTA agarose. Recombinant baculoviruses His-IKKβ, His-E1 were prepared. The insect cells were infected with each of those for expression, and affinity purification was carried out using Ni-NTA agarose. A recombinant vector GST-IκBα was prepared by fusing glutathione-S-transferase tag (GST) and IκBα, E. coli was transformed with the vector for the protein expression, and affinity purification was carried out using glutathione sepharose (Amersham Biosciences). Genetic transformants were prepared by PCR amplification followed by recombination, all of which were based on published human-derived sequences.
Phosphorylation reaction of IκBα was performed by incubating the above-mentioned assay buffer (50 mM Tris-HCl (pH7.4), 2 mM ATP, 5 mM MgCl2, 0.5 mM DTT, 0.1% BSA) containing IκBα and IKKβ at room temperature for 1 hour. Ubiquitination reactions were carried out as follows. Compound samples at various concentrations, ubiquitin, Eu (K)-labeled ubiquitin, E1, UbcH5b, and SCF complex were added to phosphorylated IκBα, and then this was incubated at room temperature for 30 minutes. The reaction was terminated by adding EDTA, the above-mentioned revelation buffer (100 mM phosphate buffer (pH7.0), 0.5 M KF, 0.1% BSA) containing XL665-labeled anti-GST antibody was added and this was left to stand at room temperature for 2 hours. Measurements were made using ARVO-HTS (Perkin Elmer). The ratio of fluorescence intensities at 620 nm and 665 nm (Em 665 nm/Em 620 nm x 10,000) with excitation light at 337 nm was measured.
The ubiquitination level without the addition of a compound sample was used as the control value, and the level in the absence of SCF complex was used as the blank value for the assays. Inhibitory activities of the compounds were indicated as % inhibition = 100 - (value with a compound sample added - blank value) / (control value - blank value) x 100. IC50 was indicated as the concentration of the compound showing 50% inhibition. Eu (K)-labeled ubiquitin, XL665-labeled anti-GST antibody, and XL665-labeled anti-His antibody were purchased from CIS bio international. Costar solid black plates (96 wells) were used for the assays.
Turning to `CC1=NN(c2ccc(C(=O)N3CCCCC3)cc2)C(=O)/C1=C\c1ccc2[nH]ccc2c1` [Compound 358], the IC50 is under 10 µM.
Turning to `O=C(O)c1ccc(N2N=C(c3cccnc3)/C(=C/c3ccc4c(c3)OCCO4)C2=O)cc1` [Compound 310], the IC50 fell in the range of 10 to 20 µM.
Same read-out and setting: the result for `O=C(O)c1ccc(N2N=C(c3ccoc3)/C(=C/c3ccc(N4CCC(CO)CC4)cc3)C2=O)cc1` [Compound 438] reads under 10 µM; that for `CC1=NN(c2ccc(S(N)(=O)=O)cc2)C(=O)/C1=C\c1ccc(OS(=O)(=O)c2ccc(C(C)(C)C)cc2)cc1` [Compound 221], 10 to 20 µM.
In the case of `CC1=NN(c2cccc(S(N)(=O)=O)c2)C(=O)/C1=C\c1c[nH]c2ccc(Cl)cc12` [Compound 147], the IC50 is under 10 µM.
For the molecule `CC(=O)OCc1ccc(/C=C2\C(=O)N(c3ccc(C(=O)O)cc3)N=C2C)o1` [Compound 524], the IC50 was under 40 µM.
On the same count and under the same terms, the result for `CC1=NN(c2cccc(S(N)(=O)=O)c2)C(=O)/C1=C\c1ccc(N2CCCC2CO)cc1` (stereo not drawn) [Compound 174] reads under 40 µM; that for `COc1cc(C=C2C(=O)N(c3ccc(S(N)(=O)=O)cc3)N=C2C)ccc1OCC1CCCCC1` [Compound 161], under 40 µM; that for `CN1CCN(c2ccc(/C=C3\C(=O)N(c4ccccc4)N=C3Cc3ccccc3)cc2)CC1` [Compound 100], under 40 µM.
`CC1=NN(c2cccc(C(=O)NCC3CC3)c2)C(=O)/C1=C\c1ccc2c(c1)OCCO2` [Compound 404]: the IC50 is under 40 µM.
Take `COc1ncccc1/C=C1\C(=O)N(c2cccc(C(=O)O)c2)N=C1C` [Compound 506]: the IC50 is under 40 µM.
On the same count and under the same terms, the result for `CC1=NN(c2cccc(S(N)(=O)=O)c2)C(=O)/C1=C\c1ccc(N2CCC(CO)CC2)cc1` [Compound 173] reads under 40 µM; that for `CC1=NN(c2ccc(S(N)(=O)=O)cc2)C(=O)/C1=C\c1ccc2occc2c1` [Compound 144], 10 to 20 µM; that for `CC1=NN(c2ccc(S(N)(=O)=O)cc2)C(=O)/C1=C\c1ccc(OCC(=O)N(C)C)cc1` [Compound 209], 10 to 20 µM.
On the same count and under the same terms, with `CC1=NN(c2ccccc2)C(=O)/C1=C\c1ccc(OCC(=O)Nc2ccccc2)cc1` [Compound 205] the figure was under 40 µM.
For `O=C(O)c1ccc(N2N=C(c3ccoc3)/C(=C/c3ccc4c(c3)OCCO4)C2=O)cc1` [Compound 330], the IC50 was under 10 µM.
The same measure, in the same setting: with `CC1=NN(c2ccc(C(=O)N3CCN(c4ccccc4)CC3)cc2)C(=O)C1=Cc1ccc2[nH]ccc2c1` [Compound 353] the figure was under 10 µM.
The same measure, in the same setting: with `CCCCC1=NN(c2ccccc2)C(=O)/C1=C\c1ccc(O)c(OC)c1` [Compound 50] the figure was 10 to 20 µM.
For the molecule `O=C1/C(=C\c2ccc(CO)o2)C(c2ccncc2)=NN1c1ccccc1` [Compound 44], the IC50 is under 40 µM.
With `O=C(O)c1ccc(N2N=C(Cc3ccccc3)/C(=C/c3ccc(-n4cncn4)cc3)C2=O)cc1` [Compound 276], the IC50 is under 40 µM.
The same measure, in the same setting: with `COc1ccc(C2=NN(c3ccc(C(=O)O)cc3)C(=O)/C2=C\c2ccc(-n3ccnc3)cc2)cc1OC` [Compound 282] the figure was under 40 µM.
Same read-out and setting: the result for `CCOC(=O)CN1CCN(c2ccc(/C=C3\C(=O)N(c4cccc(C(=O)O)c4)N=C3C)cc2)CC1` [Compound 446] reads under 40 µM.
On the same count and under the same terms, with `O=C(O)c1ccc(N2N=C(c3ccoc3)C(=Cc3ccc(N4CCC(O)CC4)s3)C2=O)cc1` [Compound 251] the figure was under 40 µM; with `CC1=NN(c2ccc(C(=O)N3CCCC3CO)cc2)C(=O)/C1=C\c1ccc2[nH]ccc2c1` (stereo not drawn) [Compound 362], under 10 µM.
Consider `COc1cc(/C=C2\C(=O)N(c3ccc(C(=O)O)cc3)N=C2c2ccncc2)ccc1O` [Compound 286], for which the IC50 lay in the range of 10 to 20 µM.
On the same count and under the same terms, the result for `O=C1/C(=C\c2ccc(N3CCCC3)cc2)C(c2ccncc2)=NN1c1ccccc1` [Compound 45] reads under 40 µM.
On the same count and under the same terms, with `COCC1=NN(c2cccc(C(=O)O)c2)C(=O)/C1=C\c1ccc(N2CCCC2)cc1` [Compound 471] the figure was 10 to 20 µM.
As for `CCCCC1=NN(c2ccc(C(=O)O)cc2)C(=O)/C1=C\c1ccc2ccccc2c1` [Compound 336], the IC50 was in the range of 10 to 20 µM.
As to `CC1=NN(c2cccc(C(=O)O)c2)C(=O)/C1=C\c1cccs1` [Compound 508], the IC50 is under 40 µM.
Regarding `O=C(O)c1ccc(N2N=C(Cc3ccccc3)/C(=C/c3ccc(N4CCCC4)cc3)C2=O)cc1` [Compound 269], the IC50 fell in the range of 10 to 20 µM.
Take `CC1=NN(c2ccccc2)C(=O)/C1=C\c1ccc(OCC(=O)N(C)C)cc1` [Compound 206]: the IC50 was under 40 µM.
On to `CC1=NN(c2cccc(C(=O)O)c2)C(=O)/C1=C\c1ccc(N2CCCC2CO)cc1` (stereo not drawn) [Compound 422], for which the IC50 was in the range of 10 to 20 µM.
Same read-out and setting: the result for `CC1=NN(c2ccc(C(=O)N3CCC(CO)CC3)cc2)C(=O)/C1=C\c1ccc2[nH]ccc2c1` [Compound 361] reads under 10 µM; that for `CC1=NN(c2ccc(C(=O)O)cc2)C(=O)/C1=C\c1cc2ccccc2n1C` [Compound 360], under 10 µM.
On to `COc1ccc(C2=NN(c3ccccc3)C(=O)C2=Cc2ccc3c(c2)OCCO3)cc1` [Compound 93], for which the IC50 was under 40 µM.
As for `CC1=NN(c2ccccc2)C(=O)/C1=C\c1ccc(N2CCN(C)CC2)cc1` [Compound 99], the IC50 is 10 to 20 µM.
With `COc1cc(/C=C2\C(=O)N(c3ccccc3)N=C2c2cccnc2)ccc1O` [Compound 60], the IC50 is under 40 µM.
In the case of `COC(=O)N1CCN(c2ccc(/C=C3\C(=O)N(c4ccccc4)N=C3c3ccncc3)cc2)CC1` [Compound 42], the IC50 was under 40 µM.
With `O=C(O)c1ccc(N2N=C(c3ccccn3)/C(=C/c3ccc(N4CCC(O)CC4)s3)C2=O)cc1` [Compound 293], the IC50 was under 40 µM.
With `CC1=NN(c2cccc(C(=O)O)c2)C(=O)/C1=C\c1cccc2cc[nH]c12` [Compound 356], the IC50 was under 10 µM.
On to `CC1=NN(c2ccc(C(=O)O)cc2)C(=O)C1=Cc1c[nH]c2ccc(Cl)cc12` [Compound 378], for which the IC50 is under 10 µM.
Same read-out and setting: with `COc1cc(/C=C2\C(=O)N(c3ccc(S(N)(=O)=O)cc3)N=C2C)ccc1OCC1CC1` [Compound 159] the figure was 10 to 20 µM.
Regarding `COc1cc(/C=C2\C(=O)N(c3ccc(C(=O)O)cc3)N=C2c2cccnc2)ccc1O` [Compound 337], the IC50 lay in the range of 10 to 20 µM.
For `CC1=NN(c2cccc(C(=O)O)c2)C(=O)/C1=C\c1ccc(N2CCC(CO)CC2)cc1` [Compound 421], the IC50 was under 10 µM.
As for `CC1=NN(c2cccc(S(N)(=O)=O)c2)C(=O)/C1=C\c1cccc2cc[nH]c12` [Compound 140], the IC50 was under 10 µM.
In the case of `CC1=NN(c2cccc(C(=O)O)c2)C(=O)/C1=C\c1ccc(N2CCC(N3CCCC3)CC2)cc1` [Compound 435], the IC50 fell in the range of 10 to 20 µM.
Take `CC1=NN(c2ccc(C(=O)O)cc2)C(=O)C1=Cc1ccc(N2CCC(N3CCCC3)CC2)cc1` [Compound 450]: the IC50 is under 40 µM.
Regarding `O=C(O)c1ccc(N2N=C(c3ccccn3)/C(=C/c3ccc4c(c3)OCCO4)C2=O)cc1` [Compound 292], the IC50 lay within 10 to 20 µM.
For `CC1=NN(c2cccc(C(=O)O)c2)C(=O)/C1=C\c1ccsc1` [Compound 515], the IC50 is under 40 µM.
On to `O=C1/C(=C\c2ccc(CO)o2)C(c2cccnc2)=NN1c1ccccc1` [Compound 64], for which the IC50 is under 40 µM.
Consider `COCCC1=NN(c2cccc(C(=O)O)c2)C(=O)/C1=C\c1ccc(-c2ccccc2F)o1` [Compound 526], for which the IC50 is under 40 µM.
Take `CC1=NN(c2ccc(S(N)(=O)=O)cc2)C(=O)/C1=C\c1ccc(N2CCN(c3ccc(F)cc3)CC2)cc1` [Compound 176]: the IC50 was under 10 µM.
For the molecule `O=C(O)c1ccc(N2N=C(c3ccncc3)C(=Cc3ccc4c(c3)OCCO4)C2=O)cc1` [Compound 288], the IC50 was 10 to 20 µM.
`COCC1=NN(c2ccc(C(=O)O)cc2)C(=O)/C1=C\c1cccc2nccnc12` [Compound 327]: the IC50 was under 10 µM.
Same read-out and setting: the result for `CC(C)(C)OC(=O)N1CCN(C(=O)C2=NN(c3ccccc3)C(=O)/C2=C\c2ccc(-c3ccccc3F)o2)CC1` [Compound 88] reads under 40 µM; that for `COCC1=NN(c2ccccc2)C(=O)/C1=C\c1ccc2c(c1)OCCO2` [Compound 9], 10 to 20 µM.

The same assay, now with this note: read-out: EVALUATION; enzyme activity inhibition test, method (1), Table 5.
As to `CC1=NN(c2cccc(C(=O)O)c2)C(=O)C1=Cc1ccc(-c2cnn(C)c2)o1` [Compound 495], the IC50 is 10 to 20 µM.
